These are literature values, as cited in patent publication US20260091056A1, “COMPOSITIONS FOR CONTROLLING ODOR AND ITCH AND METHODS OF AND DEVICES FOR ADMINISTERING SAME” (Vireo Systems, Inc., priority 2020, published 2026).

For this data set the following is noted: at 25° C.

For the substance boric acid, the pKa value is listed as ~9.14.
